What all share (type): in vivo
Test [1] deals with Abutilon theophrasti (ABUTH). In words: Post-emergence herbicidal glasshouse test (Table B1). Conditions: applied at 500 g/h, evaluated after 13 days. The method in brief: (§1)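 Damage is rated 13 days after treatment on a 1–5 scale (5 = 80–100%). Application, usually 500 g/h in acetone/water (50:50) with 0.5% Tween 20, is made one day post-sowing for pre-emergence or eight days for post-emergence; glasshouse at 24/16 °C, 14 h light, 65% humidity.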

For test [2], the system named is Amaranthus retoflexus (AMARE). The description is as above. Conditions: applied at 500 g/h, evaluated after 13 days. In short, it runs like this:
as §1

Test [3] deals with Ipomoea hederacea (IPOHE). Described as above. Conditions: applied at 500 g/h, evaluated after 13 days. In short, it runs like this:
as §1

Test [4] has as its system Echinochloa crus-galh (ECHCG). Described as above. Conditions: applied at 500 g/h, evaluated after 13 days. The method in brief: as §1
For test [5], the system named is Setaria faberi (SETFA). Described as above. Conditions: applied at 500 g/h, evaluated after 13 days. The method in brief: as §1
In test [6] the test system is Abutilon theophrasti (ABUTH). In words: Pre-emergence herbicidal glasshouse test (Table B1). Conditions: applied at 500 g/h, evaluated after 13 days. In short, it runs like this: as §1
Test [7] concerns Amaranthus retoflexus (AMARE). Described as above. Conditions: applied at 500 g/h, evaluated after 13 days. In short, it runs like this: as §1
Test [8] concerns Ipomoea hederacea (IPOHE). Described as above. Conditions: applied, evaluated after 13 days. In short, it runs like this:
as §1

Test [9] deals with Echinochloa crus-galh (ECHCG). The test is described as above. Conditions: applied at 500 g/h, evaluated after 13 days. The method in brief: as §1
Test [10] relates to Setaria faberi (SETFA). The description is as above. Conditions: applied at 500 g/h, evaluated after 13 days. In short, it runs like this: as §1

Turning to `CCn1nnnc1NC(=O)c1ccc(OC(F)(F)C(F)F)c(NC(=O)C2CC2)c1Cl` [Compound 1.102], the “POST Application ABUTH, percentage damage on five-point scale” value in test [1] is on record as 5 (5=80-100%). In addition, the “POST Application AMARE, percentage damage on five-point scale” value in test [2] is on record as 5 (5=80-100%). Moreover, in test [3], the “POST Application IPOHE, percentage damage on five-point scale” value is 5 (5=80-100%). Besides, in test [4], the “POST Application ECHCG, percentage damage on five-point scale” value is on record as 5 (5=80-100%). In addition, in test [5], the “POST Application SETFA, percentage damage on five-point scale” value is 5 (5=80-100%). The “PRE Application ABUTH, percentage damage on five-point scale” value (from here on “PRE Application ABUTH, percentage damage”) in test [6] is 4 (4=60-79%). For the same molecule, in test [7], the “PRE Application AMARE, percentage damage on five-point scale” value (shortened to “PRE Application AMARE, percentage damage”) is reported as 5 (5=80-100%). Also, in test [8], the “PRE Application IPOHE, percentage damage on five-point scale” value (“PRE Application IPOHE, percentage damage” below) was 1 (1=0-19%). Moreover, in test [9], the “PRE Application ECHCG, percentage damage on five-point scale” value (from here on “PRE Application ECHCG, percentage damage”) is listed as 5 (5=80-100%). Also, in test [10], the “PRE Application SETFA, percentage damage on five-point scale” value (shortened to “PRE Application SETFA, percentage damage”) was 4 (4=60-79%).
As for `CCC(=O)Nc1c(OC(F)(F)C(F)F)ccc(C(=O)Nc2nnnn2CC)c1Cl` [Compound 1.103], the “POST Application ABUTH, percentage damage on five-point scale” value in test [1] is 5 (5=80-100%). The “POST Application AMARE, percentage damage on five-point scale” value in test [2] is 5 (5=80-100%). In addition, the “POST Application IPOHE, percentage damage on five-point scale” value in test [3] was 5 (5=80-100%). In [4], the “POST Application ECHCG, percentage damage on five-point scale” value is reported as 5 (5=80-100%). Also, the “POST Application SETFA, percentage damage on five-point scale” value in test [5] is 5 (5=80-100%). In addition, in [6], the “PRE Application ABUTH, percentage damage” value is 4 (4=60-79%). Moreover, in test [7], the “PRE Application AMARE, percentage damage” value is reported as 5 (5=80-100%). In addition, the “PRE Application IPOHE, percentage damage” value in test [8] is 1 (1=0-19%). In [9], the “PRE Application ECHCG, percentage damage” value is on record as 3 (3=40-59%). Moreover, the “PRE Application SETFA, percentage damage” value in test [10] was 1 (1=0-19%).
On to `CCC(CC)C(=O)Nc1c(OC(F)(F)F)ccc(C(=O)Nc2nnnn2C)c1Cl` [Compound 1.104], for which the “POST Application ABUTH, percentage damage on five-point scale” value in test [1] is listed as 5 (5=80-100%). Further, the “POST Application AMARE, percentage damage on five-point scale” value in [2] is 5 (5=80-100%). The “POST Application IPOHE, percentage damage on five-point scale” value in test [3] is 5 (5=80-100%). Besides, the “POST Application ECHCG, percentage damage on five-point scale” value in test [4] is listed as 5 (5=80-100%). The “POST Application SETFA, percentage damage on five-point scale” value in test [5] is 5 (5=80-100%). For the same molecule, the “PRE Application ABUTH, percentage damage” value in test [6] is listed as 4 (4=60-79%). The “PRE Application AMARE, percentage damage” value in test [7] is 5 (5=80-100%). Also, the “PRE Application IPOHE, percentage damage” value in [8] was 2 (2=20-39%). Also, the “PRE Application ECHCG, percentage damage” value in test [9] is recorded as 5 (5=80-100%). Further, the “PRE Application SETFA, percentage damage” value in test [10] is recorded as 3 (3=40-59%).
Regarding `CCC(CC)C(=O)Nc1c(OC(F)(F)F)ccc(C(=O)Nc2nnnn2CC)c1Cl` [Compound 1.105], the “POST Application ABUTH, percentage damage on five-point scale” value in test [1] is recorded as 5 (5=80-100%). In addition, the “POST Application AMARE, percentage damage on five-point scale” value in test [2] is on record as 5 (5=80-100%). Besides, the “POST Application IPOHE, percentage damage on five-point scale” value in test [3] is 5 (5=80-100%). In addition, in test [4], the “POST Application ECHCG, percentage damage on five-point scale” value was 5 (5=80-100%). For the same molecule, the “POST Application SETFA, percentage damage on five-point scale” value in test [5] is recorded as 5 (5=80-100%). Besides, in test [6], the “PRE Application ABUTH, percentage damage” value is on record as 5 (5=80-100%). For the same molecule, the “PRE Application AMARE, percentage damage” value in test [7] was 5 (5=80-100%). Also, the “PRE Application IPOHE, percentage damage” value in test [8] is 2 (2=20-39%). In addition, the “PRE Application ECHCG, percentage damage” value in test [9] is recorded as 5 (5=80-100%). In addition, the “PRE Application SETFA, percentage damage” value in test [10] is recorded as 3 (3=40-59%).
On to `Cn1nnnc1NC(=O)c1ccc(OC(F)(F)F)c(NC(=O)C(C)(C)C)c1Cl` [Compound 1.107], for which the “POST Application ABUTH, percentage damage on five-point scale” value in test [1] was 5 (5=80-100%). Besides, the “POST Application AMARE, percentage damage on five-point scale” value in [2] is on record as 5 (5=80-100%). In addition, in [3], the “POST Application IPOHE, percentage damage on five-point scale” value is on record as 5 (5=80-100%). In addition, the “POST Application ECHCG, percentage damage on five-point scale” value in test [4] is recorded as 5 (5=80-100%). For the same molecule, the “POST Application SETFA, percentage damage on five-point scale” value in test [5] is listed as 5 (5=80-100%). In addition, the “PRE Application ABUTH, percentage damage” value in [6] is given as 5 (5=80-100%). In test [7], the “PRE Application AMARE, percentage damage” value was 5 (5=80-100%). For the same molecule, the “PRE Application IPOHE, percentage damage” value in [8] is 4 (4=60-79%). The “PRE Application ECHCG, percentage damage” value in [9] is 5 (5=80-100%). Moreover, in [10], the “PRE Application SETFA, percentage damage” value is given as 5 (5=80-100%).

Source of the values: patent publication US20230219904A1 (SYNGENTA CROP PROTECTION AG, priority 2020, published 2023).
